Earlier results as cited in US5945417A, “Heterocyclic compounds, their preparation and use” (priority 1995, dated 1999).

What was measured:
[1] = test system: metabotropic glutamate receptors; conditions: literature
[2] = test system: trans ACPD stimulated phosphoinositide hydrolysis; conditions: literature
[3] = test system: mGluR1α; conditions: 1 mM quisqualate or glutamate; BHK cells expressing mGluR1α
[4] = test system: nerve cell cultures; conditions: literature
[5] = test system: release of dopamine in the rat brain; conditions: literature
[6] = test system: MCAO model in mice; conditions: literature
[7] = test system: control BHK cells; conditions: 1 mM quisqualate or glutamate

Compound: Cc1onc(O)c1CC(N)C(=O)O (stereo not shown) [AMPA]
- action on the metabotropic glutamate receptors [1]: little effect

Compound: N[C@H](C(=O)O)c1ccc(C(=O)O)c(O)c1 [Compound S-4C3HPG, S-4-carboxy-3-hydroxyphenyl glycine]
- antagonism of trans ACPD stimulated phosphoinositide hydrolysis [2]: antagonise trans ACPD stimulated phosphoinositide hydrolysis

Compound: N[C@H](C(=O)O)c1ccc(C(=O)O)cc1 [Compound S-4CPG, S-4-carboxyphenyl glycine]
- antagonism of trans ACPD stimulated phosphoinositide hydrolysis [2]: antagonise trans ACPD stimulated phosphoinositide hydrolysis

Compound: N[C@@H](CP(=O)(O)O)C(=O)O [L-AP3, L-2-amino-3-phosphonopropionic acid]
- action on the metabotropic glutamate receptors [1]: partial agonist

Compound: N[C@@H](CCC(=O)O)C(=O)O [L-glutamate]
- fold increase over basal Pl-hydrolysis [3]: 6-8 fold

Compound: CN[C@H](CC(=O)O)C(=O)O [NMDA]
- action on the metabotropic glutamate receptors [1]: little effect

Compound: C[C@@](N)(C(=O)O)c1ccc(C(=O)O)cc1 [S-MCPG, S-alpha methyl4-carboxyphenyl glycine]
- antagonism of trans ACPD stimulated phosphoinositide hydrolysis [2]: antagonise trans ACPD stimulated phosphoinositide hydrolysis

Compound: N[C@@]1(C(=O)O)CC[C@@H](C(=O)O)C1 [Trans-ACPD, trans 1S,3R-1-aminocyclopentane-1,3-dicarboxylicacid]
- action on the metabotropic glutamate receptors [1]: selectively activated
- inhibition of NMDA induced neurotoxicity [4]: inhibit NMDA induced neurotoxicity
- release of dopamine in the rat brain [5]: increase release of dopamine in the rat brain
- neuroprotection in an MCAO model in mice [6]: neuroprotective agent

Compound: NC(C(=O)O)c1cc(O)no1 (stereo not shown) [ibotenate]
- action on the metabotropic glutamate receptors [1]: non-selective agonists

Compound: C=C(C)[C@H]1CN[C@H](C(=O)O)[C@H]1CC(=O)O [kainate]
- action on the metabotropic glutamate receptors [1]: little effect

Compound: N[C@@H](Cn1oc(=O)[nH]c1=O)C(=O)O [quisqualate]
- action on the metabotropic glutamate receptors [1]: non-selective agonists
- fold increase over basal Pl-hydrolysis [3]: 6-8 fold
- stimulation in control BHK cells [7]: no stimulation
